Test system: paradoxical MEK/ERK pathway activation in NRAS Q61K Sbcl2 melanoma cells
Assay: Vemurafenib induced paradoxical MEK/ERK activation, Western blotting
Assay type: cell-based, human
Settings: 1 μM, control peptide treated Sbcl2 cells

CCCS(=O)(=O)Nc1ccc(F)c(C(=O)c2c[nH]c3ncc(-c4ccc(Cl)cc4)cc23)c1F [vemurafenib]
effect on pMEK and pERK levels: induces paradoxical MEK/ERK pathway activation
